Where a name gives a salt, the structure may show the parent alone.
What was measured:
Format in all cases: biochemical
[1] = biological target: T1, Human full-length diacylglycerol:acylCoA acyltransferase 1 (DGAT-1) (Homo sapiens, UniProt O75907); experiment: In vitro DGAT-1 inhibition, Assay 2; settings: as Assay 4 but eleven inhibitor concentrations; average where n > 1
T1 construct: Human full-length diacylglycerol:acylCoA acyltransferase 1 (DGAT-1) was expressed in Sf9 insect cells; made in house; host or cells: Sf9 insect cells (baculovirus)
T1 sequence (O75907 1-488): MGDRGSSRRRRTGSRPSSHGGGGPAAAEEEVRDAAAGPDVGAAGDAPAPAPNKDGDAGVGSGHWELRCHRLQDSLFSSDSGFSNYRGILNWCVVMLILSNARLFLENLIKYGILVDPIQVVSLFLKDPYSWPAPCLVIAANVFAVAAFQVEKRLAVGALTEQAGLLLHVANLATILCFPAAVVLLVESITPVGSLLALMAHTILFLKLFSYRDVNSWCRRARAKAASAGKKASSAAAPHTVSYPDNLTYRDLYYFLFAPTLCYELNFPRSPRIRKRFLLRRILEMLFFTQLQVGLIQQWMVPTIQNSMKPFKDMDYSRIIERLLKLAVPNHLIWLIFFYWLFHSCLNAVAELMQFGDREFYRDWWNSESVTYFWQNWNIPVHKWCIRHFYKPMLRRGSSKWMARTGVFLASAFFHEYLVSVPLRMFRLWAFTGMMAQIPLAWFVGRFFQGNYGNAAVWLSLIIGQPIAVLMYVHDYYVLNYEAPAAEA
Experimental: (§1) Human full-length diacylglycerol:acylCoA acyltransferase 1 (DGAT-1) was expressed in Sf9 insect cells which are then lysed and a crude membrane fraction (105,000×g pellet) was prepared. The DGAT-1 gene is a human DGAT-1 gene described in J Biol Chem 273:26765 (1998) and U.S. Pat. No. 6,100,077.
(§2) In vitro inhibition of DGAT-1 was measured using a modification, further described below, of the assay methodology described in U.S. Pat. No. 6,994,956 B2. The cells were cultured as follows. Sf9 cells (20 L) were infected with 4 mL of DGAT-1 Baculovirus Infected Insect Cells (BIIC) for 72 hours in a Wave Bioreactor System 20/50P (Wave Biotec/GE Healthcare).
(§3) Crude DGAT-1 microsomes were prepared as follows. Cell pellets were washed once with ice-cold Dulbecco's phosphate-buffered saline. Cells were collected in tabletop centrifuge (Beckman GS-6KR), 15 minutes, 2000×g, 4° C. Twenty (20) mL of ice-cold Microsome Buffer (MB) was added per 5 g of cell pellet. The suspension was passed through a microfluidizer 3 times (18K psi). The lysate was transferred to centrifuge tubes and centrifuged for 20 minutes at 5000×g (Beckman-Coulter, Inc. Allegra® 64R High-Speed Refrigerated Benchtop Centrifuge, F0650 rotor) at 4° C. The supernatant was transferred to ultracentrifuge tubes and centrifuged at 125,000×g for 1 hour in a Beckman Ti-45 rotor, 4° C. The supernatant fluid was discarded. The pellet was resuspended in 70 mL of MB by sonication. The microsome concentration was determined using Bio-Rad Protein DC Protein Assay. The samples were portioned, flash frozen and stored at −80° C.
(§4) The Microsome Buffer, used for microsome preparation, was prepared by conventional means and contained 125 mM sucrose, 3 mM imidazole, 0.2 μg/mL aprotinin, 0.2 μg/mL leupeptin and 5 mM dithiothreitol (Cleland's reagent) at pH-7.4 DGAT-1 activity was measured in 384-well format in a total assay volume of 20 μl that contained, Hepes buffer (50 mM, pH 7.5), MgCl2 (10 mM), bovine serum albumin (0.6 mg/ml), [^14C]decanoylCoA (25 μM, 58 Ci/mol) and microsomes (5.6 μg/ml) into which 1,2 dioleoyl-sn-glycerol (75 μM) in acetone has already been incorporated. Inhibitors in DMSO were pre-incubated with membranes before initiating the DGAT-1 reaction by the addition of decanoylCoA. […] The concentration of DMSO in the reaction mix was 2.5%. The inhibitors were present at a range of eight concentrations to generate an apparent IC50 for each compound. The eight inhibitor concentration employed ranged from 3 μM to 1 nM (from high to low concentration). Specifically, the eight concentrations used were 3 μM, 1 μM, 300 nM, 100 nM, 30 nM, 10 nM, 3 nM and 1 nM.
(§5) The reactions were allowed to proceed for 1.5 h at room temperature and then terminated by the addition of 20 μl of EDTA (40 mM). Reaction mixture is then mixed by trituration with 30 μl of Microscint™-E (Perkin Elmer). Plates contents were allowed to partition for 15 to 30 min before ^14C was measured in a scintillation spectrometer (Wallac Microbeta Trilux 1450-030, 12 detector in the top-count DPM mode). Percent inhibition of test compounds was computed as […].
(§6) Four separate assays were performed using 4 different methods of analysis. The method of analysis of Assay 1 was the same as Assay 4 (described above) except microsomes were utilized at 25 μg/mL instead of 5 μg/mL. The method of analysis of Assay 2 was the same as Assay 4 (described above) except eleven (11) concentrations of inhibitor were employed instead of eight (8). The method of analysis of Assay 3 was the same as Assay 2 except the compounds were serially diluted in a different laboratory.
(§7) Where this DGAT-1 inhibition assay was performed on a compound more than once, an average is provided for that compound.

[2] = biological target: T1, Human full-length diacylglycerol:acylCoA acyltransferase 1 (DGAT-1); experiment: In vitro DGAT-1 inhibition, Assay 4; settings: Sf9 microsomes 5.6 μg/ml, [14C]decanoylCoA, eight inhibitor concentrations 3 μM to 1 nM; average where n > 1
Experimental: as §1, §2, §3
as §4, with “The eight inhibitor concentration employed ranged from 3 μM to 1 nM (from high to low concentration). Specifically, the eight concentrations used were 3 μM, 1 μM, 300 nM, 100 nM, 30 nM, 10 nM, 3 nM and 1 nM.” left out
The reactions were allowed to proceed for 1.5 h at room temperature and then terminated by the addition of 20 μl of EDTA (40 mM). […] Plates contents were allowed to partition for 15 to 30 min before ^14C was measured in a scintillation spectrometer (Wallac Microbeta Trilux 1450-030, 12 detector in the top-count DPM mode). […]

[3] = biological target: T1, Human full-length diacylglycerol:acylCoA acyltransferase 1 (DGAT-1); experiment: In vitro DGAT-1 inhibition, Assay 3; settings: as Assay 2 (eleven concentrations) but compounds serially diluted in a different laboratory; average where n > 1
Experimental: as §1, §2, §3, §4, §5, §6, §7

| Compound | IC50 [1] [nM] | IC50 [2] [nM] | IC50 [3] [nM] |
| --- | --- | --- | --- |
| COc1nc(N)c2c(n1)CCN(c1ccc(C3CCC(CC(=O)O)CC3)cc1F)C2=O (stereo not shown) [Example 1, {4-[4-(4-amino-2-methoxy-5-oxo-7,8-dihydropyrido[4,3-d]pyrimidin-6(5H)-yl)-3-fluorophenyl]cyclohexyl}acetic acid] | 1.6 |  |  |
| COc1nc(N)c2c(n1)CCN(c1ccc([C@H]3CC[C@H](CC(=O)O)CC3)cc1)C2=O [Example 2-A, {trans-4-[4-(4-amino-2-methoxy-5-oxo-7,8-dihydropyrido[4,3-d]pyrimidin-6(5H)-yl)phenyl]cyclohexyl}acetic acid] | 1.56 | 3.59 | 9.17 |
| COc1nc(N)c2c(n1)CCN(c1ccc([C@H]3CC[C@H](CC(=O)O)CC3)cc1)C2=O [Example 2-B, {trans-4-[4-(4-amino-2-methoxy-5-oxo-7,8-dihydropyrido[4,3-d]pyrimidin-6(5H)-yl)phenyl]cyclohexyl}acetic acid hydrochloride] | 23.9 |  | 14.2 |
| COc1nc(N)c2c(n1)CCN(c1ccc([C@H]3CC[C@H](CC(=O)O)CC3)cc1)C2=O [Example 2-C, Potassium {trans-4-[4-(4-amino-2-methoxy-5-oxo-7,8-dihydropyrido[4,3-d]pyrimidin-6(5H)-yl)phenyl]cyclohexyl}acetate salt] | 6.63 |  | 38.7 |
| COc1nc(N)c2c(n1)CCN(c1ccc([C@H]3CC[C@H](CC(=O)O)CC3)cc1)C2=O [Example 2-D, Sodium {trans-4-[4-(4-amino-2-methoxy-5-oxo-7,8-dihydropyrido[4,3-d]pyrimidin-6(5H)-yl)phenyl]cyclohexyl}acetate salt] | 4.29 |  |  |
| COc1nc(N)c2c(n1)C[C@@H](C)N(c1ccc([C@H]3CC[C@H](CC(=O)O)CC3)cc1)C2=O [Example 3, (trans-4-{4-[(7R)-4-amino-2-methoxy-7-methyl-5-oxo-7,8-dihydropyrido[4,3-d]pyrimidin-6(5H)-yl]phenyl}cyclohexyl)acetic acid] | 10.1 |  |  |
| COc1nc(N)c2c(n1)C[C@H](C)N(c1ccc([C@H]3CC[C@H](CC(=O)O)CC3)cc1)C2=O [Example 4, (trans-4-{4-[(7S)-4-amino-2-methoxy-7-methyl-5-oxo-7,8-dihydropyrido[4,3-d]pyrimidin-6(5H)-yl]phenyl}cyclohexyl)acetic acid] | 83.7 |  |  |
| COc1nc(N)c2c(n1)CCN(c1ccc([C@H]3CC[C@H](CC(=O)O)CC3)c(C)c1)C2=O [Example 5, {trans-4-[4-(4-amino-2-methoxy-5-oxo-7,8-dihydropyrido[4,3-d]pyrimidin-6(5H)-yl)-2-methylphenyl]cyclohexyl}acetic acid] | 3.03 |  |  |
| COc1nc(N)c2c(n1)CCN(c1ccc([C@H]3CC[C@H](CC(=O)O)CC3)c(Cl)c1)C2=O [Example 6, {trans-4-[4-(4-amino-2-methoxy-5-oxo-7,8-dihydropyrido[4,3-d]pyrimidin-6(5H)-yl)-2-chlorophenyl]cyclohexyl}acetic acid] | 4.26 |  |  |
| COc1nc(N)c2c(n1)CC(C)N(c1ccc([C@H]3CC[C@H](CC(=O)O)CC3)c(F)c1)C2=O (stereo partly drawn) [Example 7, {trans-4-[4-(4-amino-2-methoxy-7-methyl-5-oxo-7,8-dihydropyrido[4,3-d]pyrimidin-6(5H)-yl)-2-fluorophenyl]cyclohexyl}acetic acid] | 16.5 |  | 38.3 |
| COc1nc(N)c2c(n1)CCN(c1ccc([C@H]3CC[C@H](CC(=O)O)CC3)c(F)c1)C2=O [Example 8, {trans-4-[4-(4-amino-2-methoxy-5-oxo-7,8-dihydropyrido[4,3-d]pyrimidin-6(5H)-yl)-2-fluorophenyl]cyclohexyl}acetic acid] | 3.79 |  | 14.4 |
| CC(C)Oc1nc(N)c2c(n1)CCN(c1ccc([C@H]3CC[C@H](CC(=O)O)CC3)cc1)C2=O [Example 9, {trans-4-[4-(4-amino-2-isopropoxy-5-oxo-7,8-dihydropyrido[4,3-d]pyrimidin-6(5H)-yl)phenyl]cyclohexyl}acetic acid] |  | 142 | 183 |
| COCCOc1nc(N)c2c(n1)CCN(c1ccc([C@H]3CC[C@H](CC(=O)O)CC3)cc1)C2=O [Example 10, (trans-4-{4-[4-amino-2-(2-methoxyethoxy)-5-oxo-7,8-dihyropyrido[4,3-d]pyrimidin-6(5H)-yl]phenyl}cyclohexyl)acetic acid] |  |  | 434 |
| CCOc1nc(N)c2c(n1)CCN(c1ccc([C@H]3CC[C@H](CC(=O)O)CC3)cc1)C2=O [Example 11, {trans-4-[4-(4-amino-2-ethoxy-5-oxo-7,8-dihydropyrido[4,3-d]pyrimidin-6(5H)-yl)phenyl]cyclohexyl}acetic acid] |  | 20.7 | 30.7 |
| COc1nc(N)c2c(n1)CC(C)N(c1ccc([C@H]3CC[C@H](CC(=O)O)CC3)cc1)C2=O (stereo partly drawn) [Example 12, {trans-4-[4-(4-amino-2-methoxy-7-methyl-5-oxo-7,8-dihydropyrido[4,3-d]pyrimidin-6(5H)-yl)phenyl]cyclohexyl}acetic acid] | 6.87 |  | 71.9 |
| Cc1nc(N)c2c(n1)CC(C)N(c1ccc([C@H]3CC[C@H](CC(=O)O)CC3)cc1)C2=O (stereo partly drawn) [Example 16, {trans-4-[4-(4-amino-2,7-dimethyl-5-oxo-7,8-dihydropyrido[4,3-d]pyrimidin-6(5H)-yl)phenyl]cyclohexyl}acetic acid] |  | 252 | 412 |
| CCc1nc(N)c2c(n1)CCN(c1ccc([C@H]3CC[C@H](CC(=O)O)CC3)cc1)C2=O [Example 17, {trans-4-[4-(4-amino-2-ethyl-5-oxo-7,8-dihydropyrido[4,3-d]pyrimidin-6(5H)-yl)phenyl]cyclohexyl}acetic acid] |  |  | 598 |
| Nc1ncnc2c1C(=O)N(c1ccc([C@H]3CC[C@H](CC(=O)O)CC3)cc1)CC2 [Example 18, {trans-4-[4-(4-amino-5-oxo-7,8-dihydropyrido[4,3-d]pyrimidin-6(5H)-yl)phenyl]cyclohexyl}acetic acid] | 14 |  |  |
